Laboratory results reported in patent US10485895B2, “Self-assembling peptide scaffolds” (CELLULAR AND MOLECULAR RESEARCH CENTER, IRAN UNIVERSITY OF …, priority 2016, dated 2019).

Tested on: Mg-63 cells
Assay: LDH cytotoxicity assay (LDH release as marker of dead cells)
Type: cell-based
Conditions: control group = 100%, aloe vera extract 5% (v/v), SDKP about 75 micrograms per milliliter, Fingolimod hydrochloride about 10 nanogram per milliliter, FIG. 3
Experimental: In some cases, lactate dehydrogenase (LDH) assays can be performed by assessing or measuring the LDH released into the media as a marker of dead cells. In this example, biocompatibility and cytotoxicity of the injectable scaffold of the present disclosure as a whole and its components were measured by an LDH cytotoxicity assay as follows.
Mg-63 cell line was the source of osteoblast cells in the following assays. Six test groups and one control group of Mg-63 cells were prepared for investigating the cytotoxicity effects of the present injectable scaffold and its components. FIG. 3 illustrates the data of LDH release from Mg-63 cells of six test groups and one control group. […]

With `C[C@H](NC(=O)[C@H](CC(=O)O)NC(=O)[C@H](C)NC(=O)[C@H](CCCNC(=N)N)NC(=O)[C@H](C)NC(=O)[C@H](CC(=O)O)NC(=O)[C@H](C)NC(=O)[C@H](CCCNC(=N)N)NC(=O)[C@H](C)NC(=O)[C@H](CC(=O)O)NC(=O)[C@H](C)NC(=O)[C@H](CCCNC(=N)N)NC(=O)[C@H](C)NC(=O)[C@H](CC(=O)O)NC(=O)[C@H](C)NC(=O)[C@@H](N)CCCNC(=N)N)C(=O)O` [R] the LDH release was “about 62.35%”.
